Laboratory results: patent US20230416271A1, “HETEROARYLQUINAZOLINE COMPOUNDS AS PROTEIN KINASE INHIBITORS” (CHENGDU CYNOGEN BIO-PHARMACEUTICAL TECHNOLOGY CO., LTD., priority 2020, published 2023)

Legend:
Assay type in all cases: biochemical
CDK2/Cyclin A2 = CDK2/Cyclin A2 (Homo sapiens (Human), UniProt P24941); experiment: Kinase activity assay (Caliper Mobility Shift Assay), CDK2/Cyclin A2
Method: (§1) The inhibitory effect of compounds against the kinase CDK4/cyclin D3 was detected by Caliper Mobility Shift Assay method. The final concentration of the compounds to be tested was set at 10 concentrations starting from 1 uM by 3-fold serial dilution. 5 μL of compounds at 5-fold final concentration and 10 μL of CDK4/cyclin D3 kinase solution at a final concentration of 10 nM was added to a 384-well reaction plate, respectively. The plate was pre-incubated for 10 min at room temperature (with negative control wells containing 10 uL of kinase buffer and 5 uL of 5% DMSO; positive control wells containing 10 μL of kinase solution and 5 uL of 5% DMSO). The reaction was initiated by adding 10 μL of ATP at a final concentration of 250 uM and the corresponding substrate peptide mixture at room temperature for 150 minutes. 30 uL of stop detection solution containing EDTA was added to stop the kinase reaction. Caliper EZ Reader was used to read the conversion rate. Conversion inhibition rate %=(average conversion rate of positive control %−conversion rate of sample %)/(average conversion rate of positive control %−average conversion rate of negative control %). wherein: negative control wells represent the conversion rate readings of wells without enzymatic activity; positive control wells represent conversion readings for wells with no compound inhibition. The log(inhibitor) vs. response—Variable slope of the analysis software GraphPad Prism 5 was used with log concentration value as the X-axis and the percent inhibition rate as the Y-axis to fit the dose-response curve, the IC50 value of each compound on the enzyme activity was thus obtained. Calculation formula: Y=Bottom+(Top−Bottom)/(1+10^((Log IC50−X)*HillSlope)).
(§2) The IC50 values and inhibitory activities of compounds of the present disclosure on CDK6/Cyclin D3, CDK2/Cyclin A2, and CDK9/cyclin T1 were tested in a similar manner.

CDK6/Cyclin D3 = CDK6/Cyclin D3 (Homo sapiens (Human), UniProt Q00534); experiment: Kinase activity assay (Caliper Mobility Shift Assay), CDK6/Cyclin D3
Method: as §1, §2

CDK4/cyclin D3 = CDK4/cyclin D3 (Homo sapiens (Human), UniProt P11802); experiment: Kinase activity assay (Caliper Mobility Shift Assay), CDK4/cyclin D3; conditions: 10 nM kinase, 250 uM ATP
Method: as §1

CDK9/cyclin T1 = CDK9/cyclin T1 (Homo sapiens (Human), UniProt P50750); experiment: Kinase activity assay (Caliper Mobility Shift Assay), CDK9/cyclin T1
Method: as §1, §2

Sequence of CDK9/cyclin T1 (P50750 whole entry, species assumed): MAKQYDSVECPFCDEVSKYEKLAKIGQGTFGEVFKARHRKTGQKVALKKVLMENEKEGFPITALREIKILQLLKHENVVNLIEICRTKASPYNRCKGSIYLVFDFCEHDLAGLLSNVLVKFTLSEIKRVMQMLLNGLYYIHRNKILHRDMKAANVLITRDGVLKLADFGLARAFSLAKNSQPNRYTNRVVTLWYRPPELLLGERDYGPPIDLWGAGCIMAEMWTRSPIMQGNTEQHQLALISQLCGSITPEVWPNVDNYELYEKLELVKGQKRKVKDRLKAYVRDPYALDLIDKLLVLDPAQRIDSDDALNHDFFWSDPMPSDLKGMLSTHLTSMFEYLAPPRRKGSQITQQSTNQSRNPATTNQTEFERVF
Sequence of CDK9/cyclin T1 (O60563 whole entry partner, species assumed): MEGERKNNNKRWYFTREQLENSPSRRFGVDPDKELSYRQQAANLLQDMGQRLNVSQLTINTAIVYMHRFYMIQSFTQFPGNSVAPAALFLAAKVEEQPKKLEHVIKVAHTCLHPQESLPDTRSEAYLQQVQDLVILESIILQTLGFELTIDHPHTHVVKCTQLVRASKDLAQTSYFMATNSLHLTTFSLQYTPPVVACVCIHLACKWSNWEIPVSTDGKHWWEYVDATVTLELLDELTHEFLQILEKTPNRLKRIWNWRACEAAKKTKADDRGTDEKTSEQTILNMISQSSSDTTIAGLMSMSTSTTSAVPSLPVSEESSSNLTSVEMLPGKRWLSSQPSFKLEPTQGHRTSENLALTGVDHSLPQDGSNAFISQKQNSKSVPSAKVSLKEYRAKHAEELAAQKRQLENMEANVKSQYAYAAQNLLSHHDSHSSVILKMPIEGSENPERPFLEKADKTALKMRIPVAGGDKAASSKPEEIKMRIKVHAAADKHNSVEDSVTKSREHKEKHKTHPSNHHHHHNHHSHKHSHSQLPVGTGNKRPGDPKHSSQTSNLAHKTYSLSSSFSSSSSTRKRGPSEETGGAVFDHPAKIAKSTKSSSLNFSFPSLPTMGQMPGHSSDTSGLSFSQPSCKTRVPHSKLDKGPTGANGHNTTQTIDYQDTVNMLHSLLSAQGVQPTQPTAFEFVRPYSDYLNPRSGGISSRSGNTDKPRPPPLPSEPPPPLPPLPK
Sequence of CDK4/cyclin D3 (P11802 whole entry, species assumed): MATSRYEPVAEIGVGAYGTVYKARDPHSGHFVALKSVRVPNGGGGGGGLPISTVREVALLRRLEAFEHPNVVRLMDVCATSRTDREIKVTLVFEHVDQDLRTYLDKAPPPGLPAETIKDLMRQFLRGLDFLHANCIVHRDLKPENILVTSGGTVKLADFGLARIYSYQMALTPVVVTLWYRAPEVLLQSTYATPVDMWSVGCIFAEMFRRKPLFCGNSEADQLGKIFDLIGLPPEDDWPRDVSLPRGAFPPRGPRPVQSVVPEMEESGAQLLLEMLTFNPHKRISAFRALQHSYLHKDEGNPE
Sequence of CDK4/cyclin D3 (P30281 whole entry partner, species assumed): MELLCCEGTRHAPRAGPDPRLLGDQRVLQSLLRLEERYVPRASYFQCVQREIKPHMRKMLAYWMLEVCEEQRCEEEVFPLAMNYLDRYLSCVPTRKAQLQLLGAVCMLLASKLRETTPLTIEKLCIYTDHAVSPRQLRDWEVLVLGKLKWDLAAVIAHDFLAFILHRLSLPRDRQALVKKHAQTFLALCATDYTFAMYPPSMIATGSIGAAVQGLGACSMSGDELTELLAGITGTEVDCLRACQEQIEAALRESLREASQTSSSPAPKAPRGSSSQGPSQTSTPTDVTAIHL
Sequence of CDK6/Cyclin D3 (Q00534 whole entry, species assumed): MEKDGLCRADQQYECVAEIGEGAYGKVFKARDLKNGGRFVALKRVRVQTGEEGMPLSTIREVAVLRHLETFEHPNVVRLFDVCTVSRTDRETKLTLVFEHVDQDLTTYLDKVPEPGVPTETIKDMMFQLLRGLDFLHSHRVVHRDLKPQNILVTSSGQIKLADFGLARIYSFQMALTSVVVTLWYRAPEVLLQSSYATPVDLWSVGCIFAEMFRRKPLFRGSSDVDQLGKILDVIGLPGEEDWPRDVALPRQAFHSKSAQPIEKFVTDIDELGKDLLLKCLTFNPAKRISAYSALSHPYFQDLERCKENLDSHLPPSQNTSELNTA
Sequence of CDK6/Cyclin D3 (P30281 whole entry partner, species assumed): as the sequence (P30281 whole entry partner, species assumed) above

IC50 (CDK2/Cyclin A2) [nM] | IC50 (CDK6/Cyclin D3) [nM] | IC50 (CDK4/cyclin D3) [nM] | IC50 (CDK9/cyclin T1) [nM] | Structure (SMILES)
> 500 | 37 | 43 | 11 | CC(C)n1nnc2ccc3cnc(N[C@H]4CC[C@H](N5CCN(CC6CCCC6)CC5)CC4)nc3c21 [II.8, N-((1R,4R)-4-(4-(cyclopentylmethyl)piperazin-1-yl)cyclo-hexyl)-1-isopropyl-1H-[1,2,3]triazolo[4,5-h]quinazolin-8-amine]
0.5 | 12 | 4 |  | CC(C)n1nnc2c1-c1nc(NC3CCN(S(C)(=O)=O)CC3)ncc1CC2 [II.37, 1-isopropyl-N-(1-(methylsulfonyl)piperidin-4-yl)-4,5-dihydro-1H-[1,2,3]triazolo[4,5-h]quinazolin-8-amine]
42 | 36 | 32 | 25 | CC(C)c1noc2ccc3cnc(N[C@H]4CC[C@H](NC5CCOCC5)CC4)nc3c12 [I.1, (1R,4R)-N^1-(9-isopropylisoxazolo[5,4-h]quinazolin-2-yl)-N^4-(tetrahydro-2H-pyran-4-yl)cyclohexane-1,4-diamine]
249 | 68 | 47 |  | CC(C)c1noc2ccc3cnc(NC4CCNCC4)nc3c12 [I.4, 9-isopropyl-N-(piperidin-4-yl)isoxazolo[5,4-h]quinazolin-2-amine]
0.2 | 2 | 1 |  | CC(C)n1nnc2c(CC(F)(F)F)cc3cnc(NC4CCN(S(C)(=O)=O)CC4)nc3c21 [II.31, 1-isopropyl-N-(1-(methylsulfonyl)piperidin-4-yl)-4-(2,2,2-trifluoro-ethyl)-1H-[1,2,3]triazolo[4,5-h]quinazolin-8-amine]
0.2 | 4 | 3 |  | CC(C)n1nnc2cc(F)c3cnc(NC4CCN(S(C)(=O)=O)CC4)nc3c21 [II.22, 5-fluoro-1-isopropyl-N-(1-(methylsulfonyl)piperidin-4-yl)-1H-[1,2,3]triazolo[4,5-h]quinazolin-8-amine]
465 | 26 | 40 |  | CC(C)n1nnc2ccc3cnc(N[C@H]4CC[C@H](N5CCN(C6CCCC6)CC5)CC4)nc3c21 [II.7, N-((1R,4R)-4-(4-cyclopentylpiperazin-1-yl)cyclohexyl)-1-isopropyl-1H-[1,2,3]triazolo[4,5-h]quinazolin-8-amine]
5 | 7 | 6 |  | CC(C)c1noc2c(C(F)F)cc3cnc(NC4CCN(S(C)(=O)=O)CC4)nc3c12 [I.9, 6-(difluoromethyl)-9-isopropyl-N-(1-(methylsulfonyl)piperidin-4-yl)isoxazolo[5,4-h]quinazolin-2-amine]
12 | 26 | 22 |  | CC(C)n1nnc2ccc3cnc(N[C@H]4CC[C@H](NC5CCNCC5)CC4)nc3c21 [II.3, (1R,4R)-N^1-(1-isopropyl-1H-[1,2,3]triazolo[4,5-h]quinazolin-8-yl)-N^4-(piperidin-4-yl)cyclohexane-1,4-diamine]
1 | 16 | 4 |  | CC(C)n1nnc2c(Br)cc3cnc(NC4CCN(S(C)(=O)=O)CC4)nc3c21 [II.24, 4-bromo-1-isopropyl-N-(1-(methylsulfonyl)piperidin-4-yl)-1H-[1,2,3]triazolo[4,5-h]quinazolin-8-amine]
0.2 | 5 | 3 |  | CC(C)n1nnc2ccc3cnc(NC4CCN(S(C)(=O)=O)CC4)nc3c21 [II.14, 1-isopropyl-N-(1-(methylsulfonyl)piperidin-4-yl)-1H-[1,2,3] triazolo[4,5-h]quinazolin-8-amine]
8 | 3 | 7 |  | CC(C)c1noc2c(Cl)cc3cnc(NC4CCN(S(C)(=O)=O)CC4)nc3c12 [I.7, 6-chloro-9-isopropyl-N-(1-(methylsulfonyl)piperidin-4-yl)isoxazolo[5,4-h]quinazolin-2-amine]
12 | 26 | 22 | 16 | CC(C)c1noc2ccc3cnc(N[C@H]4CC[C@H](NC5CCNCC5)CC4)nc3c12 [I.2, (1R,4R)-N^1-(9-isopropylisoxazolo[5,4-h]quinazolin-2-yl)-N^4-(piperidin-4-yl)cyclohexane-1,4-diamine]
1 | 6 | 3 |  | C[C@@]1(O)CCC[C@H]1c1noc2ccc3cnc(NC4CCN(S(C)(=O)=O)CC4)nc3c12 [I.13, (1R,2S)-1-methyl-2-(2-((1-(methylsulfonyl)piperidin-4-yl)amino)isoxazolo[5,4-h]quinazolin-9-yl)cyclopentan-1-ol]
140 | 34 | 22 |  | CC(C)n1nnc2ccc3cnc(N[C@H]4CC[C@H](Nc5ncccn5)CC4)nc3c21 [II.5, (1R,4R)-N^1-(1-isopropyl-1H-[1,2,3]triazolo[4,5-h]quinazolin-8-yl)-N^4-(pyrimidin-2-yl)cyclohexane-1,4-diamine]
0.4 | 4 | 3 |  | CC(C)n1nnc2ccc3cnc(NC4CCN(S(=O)(=O)C(F)F)CC4)nc3c21 [II.19, N-(1-((difluoromethyl)sulfonyl)piperidin-4-yl)-1-isopropyl-1H-[1,2,3]triazolo[4,5-h]quinazolin-8-amine]
0.4 | 8 | 3 |  | Cc1cc2cnc(NC3CCN(S(C)(=O)=O)CC3)nc2c2c1nnn2C(C)C [II.26, 1-isopropyl-4-methyl-N-(1-(methylsulfonyl)piperidin-4-yl)-1H-[1,2,3] triazolo[4,5-h]quinazolin-8-amine]
20 | 22 | 16 | 8 | CC(C)n1nnc2ccc3cnc(N[C@H]4CC[C@H](NC5CCOCC5)CC4)nc3c21 [II.2, (1R,4R)-N^1-(1-isopropyl-1H-[1,2,3]triazolo[4,5-h]quinazolin-8-yl)-N^4-(tetrahydro-2H-pyran-4-yl)cyclohexane-1,4-diamine]
1 | 15 | 8 |  | CC(C)n1nnc2ccc3cnc(NC4CCN(S(=O)(=O)CC5CC5)CC4)nc3c21 [II.17, N-(1-((cyclopropylmethyl)sulfonyl)piperidin-4-yl)-1-iso-propyl-1H-[1,2,3]triazolo[4,5-h]quinazolin-8-amine]
35 | 12 | 10 |  | CC(C)n1nnc2ccc3cnc(N[C@H]4CC[C@H](N(C)C)CC4)nc3c21 [II.6, (1R,4R)-N^1-(1-isopropyl-1H-[1,2,3]triazolo[4,5-h]quinazolin-8-yl)-N^4,N^4-dimethylcyclohexane-1,4-diamine]
9 | 3 | 6 |  | CC(C)c1noc2c(Br)cc3cnc(NC4CCN(S(C)(=O)=O)CC4)nc3c12 [I.8, 6-bromo-9-isopropyl-N-(1-(methylsulfonyl)piperidin-4-yl)isoxazolo[5,4-h]quinazolin-2-amine]
1 | 24 | 10 |  | [2H]c1cc2cnc(NC3CCN(S(C)(=O)=O)CC3)nc2c2c(C(C)C)noc12 [I.11, 9-isopropyl-N-(1-(methylsulfonyl)piperidin-4-yl)isoxazolo[5,4-h]quinazolin-6-d-2-amine]
1 | 15 | 8 |  | CC(C)n1nnc2ccc3cnc(NC4CCC(NS(C)(=O)=O)CC4)nc3c21 (stereo not shown) [II.11, N-(4-((1-isopropyl-1H-[1,2,3]triazolo[4,5-h]quinazolin-8-yl)amino)cyclohexyl)methanesulfonamide]
0.5 | 10 | 3 |  | CC(C)n1nnc2c1-c1nc(NC3CCN(S(=O)(=O)C(F)F)CC3)ncc1CC2 [II.39, N-(1-((difluoromethyl)sulfonyl)piperidin-4-yl)-1-isopropyl-4,5-dihydro-1H-[1,2,3]triazolo[4,5-h]quinazolin-8-amine]
> 500 | 446 | 253 |  | CC(C)n1nnc2ccc3cnc(NC4CCCNC4=O)nc3c21 (stereo not shown) [II.36, 3-((1-isopropyl-1H-[1,2,3]triazolo[4,5-h]quinazolin-8-yl)amino)piperidin-2-one]
336 | 46 | 22 |  | CC(C)n1nnc2ccc3cnc(N[C@H]4CC[C@H](N5CCN(C(=O)c6ccccc6)CC5)CC4)nc3c21 [II.10, (4-((1R,4R)-4-((1-isopropyl-1H-[1,2,3]triazolo[4,5-h]quinazolin-8-yl)amino)cyclohexyl)piperazin-1-yl)(phenyl) ketone]
